Results reported in publication PMC7160673, “A Degenerate Peptide Library Approach to Reveal Sequence Determinants of Methyllysine-Driven Protein Interactions” (Frontiers in Cell and Developmental Biology, 2020).

system: ABClonal #A2355, anti-H3K4me1; test: Histone peptide microarray, ABclonal A2355; assay type: binding; conditions: Abclonal A2355 (anti-H3K4me1) hits
Experimental: (§1) Peptide microarrays were fabricated using an Aushon 2470 microarrayer and used as described ([Cornett et al., 2017]) with the following modifications. Protein and antibody hybridization steps were performed in buffer containing 25 mM HEPES pH 7.5, 100 mM NaCl, 0.5% BSA (w/v), and 0.1% NP-40. Slides were washed 3 × 5 min in PBS supplemented with 0.1% Tween-20 between each hybridization step. Antibodies used were primary anti-GST (Sigma #7781, 1:2,000 dilution) and an AlexaFluor 647-labeled secondary antibody (Life Technologies A-21245, 1:5,000 dilution). […] Full lists of peptides queried by array analysis are in Supplementary Table S2.

Substance | Avg Signal
Ac-SGRGKGGKGLGKGGAK(Ac)RHRK(Ac)VLR-Peg-Biot [Peptide H4K16acK20ac] | 0.000726
AR(Me2a)TKQTARK(Me2)STGGKAPRKQL-Peg-Biotin [H3.1R2me2aK9me2] | 0.01048
ARTK(Me2)QTARK(Me2)STGGKA-Peg-Biot [H3.1K4me2K9me2] | 0.2431
ARTKQTAR(Me2a)K(Me3)STGGKAPRKQL-K(Biot)-NH2 [H3.1R8me2aK9me3] | 0.0005778
ARTKQTARK(Me2)STGGK(Ac)APRKQL-K(Biot)-NH2 [H3.1K9me2K14ac] | 0.01354
Ac-TARK(Me2)STGGKAPRKQLATKAARK(Me2)SAP-Peg-K(Biot)-NH2 [H3.1K9me2K27me2] | 0.0002867
ARTKQTAR(Me2a)K(Me)STGGKAPRKQL-K(Biot)-NH2 [H3.1R8me2aK9me1] | 0.006716

system: Abcam #ab8895, anti-H3K4me1; test: Histone peptide microarray, Abcam ab8895; assay type: binding; conditions: Abcam ab8895 (anti-H3K4me1) hits, average signal per peptide

Substance | Avg Signal
Ac-SGRGKGGKGLGKGGAK(Ac)RHRK(Ac)VLR-Peg-Biot [Peptide H4K16acK20ac] | 0.002797
AR(Me2a)TKQTARK(Me2)STGGKAPRKQL-Peg-Biotin [H3.1R2me2aK9me2] | 0.226
ARTK(Me2)QTARK(Me2)STGGKA-Peg-Biot [H3.1K4me2K9me2] | 0.2534
ARTKQTAR(Me2a)K(Me3)STGGKAPRKQL-K(Biot)-NH2 [H3.1R8me2aK9me3] | 0.1096
ARTKQTARK(Me2)STGGK(Ac)APRKQL-K(Biot)-NH2 [H3.1K9me2K14ac] | 0.2875
Ac-TARK(Me2)STGGKAPRKQLATKAARK(Me2)SAP-Peg-K(Biot)-NH2 [H3.1K9me2K27me2] | 0.004725
ARTKQTAR(Me2a)K(Me)STGGKAPRKQL-K(Biot)-NH2 [H3.1R8me2aK9me1] | 0.513

target: T1, MPP8 chromo (Homo sapiens, UniProt Q99549); test: Histone peptide microarray, MPP8 chromo; assay type: binding; conditions: normalized histone peptide array signal, hits; hybridization with 1 M MPP8 chromo (so in the source); two subarrays
T1 construct: 50-118; made in house; host or cells: E. coli BL21
T1 sequence (Q99549 50-118): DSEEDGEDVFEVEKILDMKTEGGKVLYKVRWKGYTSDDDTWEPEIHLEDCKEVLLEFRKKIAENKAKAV
Experimental: as §1

Substance | Avg Signal
AR(Me2a)TKQTARK(Me2)STGGKAPRKQL-Peg-Biotin [H3.1R2me2aK9me2] | 0.8941
ARTK(Me2)QTARK(Me2)STGGKA-Peg-Biot [H3.1K4me2K9me2] | 0.2515
ARTKQTAR(Me2a)K(Me3)STGGKAPRKQL-K(Biot)-NH2 [H3.1R8me2aK9me3] | 0.8359
ARTKQTARK(Me2)STGGK(Ac)APRKQL-K(Biot)-NH2 [H3.1K9me2K14ac] | 0.7946
Ac-TARK(Me2)STGGKAPRKQLATKAARK(Me2)SAP-Peg-K(Biot)-NH2 [H3.1K9me2K27me2] | 0.9552
ARTKQTAR(Me2a)K(Me)STGGKAPRKQL-K(Biot)-NH2 [H3.1R8me2aK9me1] | 0.4258

target: T2, CDYL2 chromo (Homo sapiens, UniProt Q8N8U2); test: Histone peptide microarray, CDYL2 chromo; assay type: binding; conditions: normalized histone peptide array signal, hits; hybridization with 1 M CDYL2 chromo (so in the source); two subarrays
T2 construct: 1-75; made in house; host or cells: E. coli BL21
T2 sequence (Q8N8U2 1-75): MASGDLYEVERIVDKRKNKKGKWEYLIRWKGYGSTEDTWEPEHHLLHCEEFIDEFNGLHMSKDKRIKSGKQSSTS
Experimental: as §1

Substance | Avg Signal
Ac-SGRGKGGKGLGKGGAK(Ac)RHRK(Ac)VLR-Peg-Biot [Peptide H4K16acK20ac] | 0.04591
AR(Me2a)TKQTARK(Me2)STGGKAPRKQL-Peg-Biotin [H3.1R2me2aK9me2] | 0.425
ARTK(Me2)QTARK(Me2)STGGKA-Peg-Biot [H3.1K4me2K9me2] | 0.1337
ARTKQTAR(Me2a)K(Me3)STGGKAPRKQL-K(Biot)-NH2 [H3.1R8me2aK9me3] | 0.3975
ARTKQTARK(Me2)STGGK(Ac)APRKQL-K(Biot)-NH2 [H3.1K9me2K14ac] | 0.2985
Ac-TARK(Me2)STGGKAPRKQLATKAARK(Me2)SAP-Peg-K(Biot)-NH2 [H3.1K9me2K27me2] | 1

system: Millipore #07-449, anti-H3K27me3; test: Histone peptide microarray, Millipore 07-449; assay type: binding; conditions: Millipore 07-449 (anti-H3K27me3) hits, average signal per peptide

Substance | Avg Signal
Ac-SGRGKGGKGLGKGGAK(Ac)RHRK(Ac)VLR-Peg-Biot [Peptide H4K16acK20ac] | 0.001622
AR(Me2a)TKQTARK(Me2)STGGKAPRKQL-Peg-Biotin [H3.1R2me2aK9me2] | 0.0074
ARTKQTAR(Me2a)K(Me3)STGGKAPRKQL-K(Biot)-NH2 [H3.1R8me2aK9me3] | 0.01827
ARTKQTARK(Me2)STGGK(Ac)APRKQL-K(Biot)-NH2 [H3.1K9me2K14ac] | 0.00428
Ac-TARK(Me2)STGGKAPRKQLATKAARK(Me2)SAP-Peg-K(Biot)-NH2 [H3.1K9me2K27me2] | 0.009651

system: 53BP1 TTD; test: Histone peptide microarray, 53BP1 TTD; assay type: binding; conditions: 53BP1 TTD hits, average signal per peptide
In short: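 Binding of protein or antibody to arrayed histone peptides read by AlexaFluor 647 fluorescence, with anti-GST primary (1:2,000) and labelled secondary (1:5,000) for GST-fused domain. Hybridisations in HEPES pH 7.5 buffer with 100 mM NaCl, 0.5% BSA and 0.1% NP-40; triple PBS-Tween washes between steps.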

Substance | Avg Signal
ARTKQTAR(Me2a)K(Me3)STGGKAPRKQL-K(Biot)-NH2 [H3.1R8me2aK9me3] | 0.2106
ARTKQTAR(Me2a)K(Me)STGGKAPRKQL-K(Biot)-NH2 [H3.1R8me2aK9me1] | 0.1501

system: CST 9733 (anti-H3K27me3); test: Histone peptide microarray, CST 9733; assay type: binding; conditions: histone peptide array signal normalized to the highest peptide average per subarray, hits; CST 9733 LOT:14 dilution 1:5,000

Substance | Avg Signal
AR(Me2a)TKQTARK(Me2)STGGKAPRKQL-Peg-Biotin [H3.1R2me2aK9me2] | 0.0005026
ARTK(Me2)QTARK(Me2)STGGKA-Peg-Biot [H3.1K4me2K9me2] | 0.0004919
ARTKQTAR(Me2a)K(Me3)STGGKAPRKQL-K(Biot)-NH2 [H3.1R8me2aK9me3] | 0.008858
ARTKQTARK(Me2)STGGK(Ac)APRKQL-K(Biot)-NH2 [H3.1K9me2K14ac] | 0.0003203
Ac-TARK(Me2)STGGKAPRKQLATKAARK(Me2)SAP-Peg-K(Biot)-NH2 [H3.1K9me2K27me2] | 0.04684

system: Active Motif #39161, anti-H3K9me3; test: Histone peptide microarray, Active Motif 39161; assay type: binding; conditions: Active Motif 39161 (anti-H3K9me3) hits

Substance | Avg Signal
Ac-SGRGKGGKGLGKGGAK(Ac)RHRK(Ac)VLR-Peg-Biot [Peptide H4K16acK20ac] | 0.03564
ARTK(Me2)QTARK(Me2)STGGKA-Peg-Biot [H3.1K4me2K9me2] | 0.001292
ARTKQTAR(Me2a)K(Me3)STGGKAPRKQL-K(Biot)-NH2 [H3.1R8me2aK9me3] | 0.6713
ARTKQTARK(Me2)STGGK(Ac)APRKQL-K(Biot)-NH2 [H3.1K9me2K14ac] | 0.00928
Ac-TARK(Me2)STGGKAPRKQLATKAARK(Me2)SAP-Peg-K(Biot)-NH2 [H3.1K9me2K27me2] | 0.0006693
ARTKQTAR(Me2a)K(Me)STGGKAPRKQL-K(Biot)-NH2 [H3.1R8me2aK9me1] | 0.00542
